Reference: patent US20240425518A1, “N-MACROCYCLIC AMIDE COMPOUNDS, PREPARATION METHODS THEREOF AND APPLICATIONS THEREOF AS MEDICAMENTS” (Chengdu FANXI Biopharma Co., Ltd., priority 2023, published 2024)

Tests used:
[1] = tested on: TT Human medullary thyroid cancer; test: MTT cell proliferation inhibition, TT; format: cell-based; settings: 72 hours
Procedure: (§1) Human cancer cells were purchased from ATCC. The cells were cultured in a culture medium according to the work instruction of ATCC. A dose-response curve was drawn by XL-fitting to determine an IC50 value of a compound. […] Cell proliferation inhibition could be detected by a MTT method (3-(4,5-Dimethylthiazol-2-yl)-2,5-diphenyltetrazolium bromide, and MTT; and 3-(4,5-dimethyl thiazole-2)-2,5-diphenyltertazolium bromide, and thiazolyl blue).
(§2) The cells were cultured in a culture dish first, and the cells in a logarithmic growth phase were inoculated into a 96-well plate (3,000 to 5,000 adherent cells/well, 10,000 to 30,000 suspended cells/well) according to a specific number, with 100 microliters per well, and then cultured in an incubator of 5% CO2 and 37° C. […] An absorbance of a general control group should be a normal value between 0.8 and 1.2. After obtaining absorbance data, a change curve of an inhibition rate was fitted by GraphPad Prism6.03 software and an IC50 value was calculated.
(§3) Calculation of drug inhibition rate: relative cell proliferation inhibition rate=[(control group A570−experimental group A570)/control group […], wherein A570 represented the absorbance at 570 nm.

[2] = tested on: Aspc-1 Human pancreatic cancer cells; test: MTT cell proliferation inhibition, Aspc-1; format: cell-based; settings: ASPC1, Aspc-1, 72 hours
Procedure: as §1, §2, §3

MM1S Human myeloma cells = test: MTT cell proliferation inhibition, MM1S; format: cell-based; settings: MM1.S, 72 hours
Procedure: as §1, §2, §3

[3] = tested on: Karpas-299 Human anaplastic large cell lymphoma cells; test: MTT cell proliferation inhibition, Karpas-299; format: cell-based; settings: Karpas-299, 72 hours
Procedure: as §1, §2, §3

[4] = tested on: RPMI 8226 Human myeloma cells; test: MTT cell proliferation inhibition, RPMI 8226; format: cell-based; settings: RPMI 8226, 72 hours
Procedure: as §1, §2, §3

Ret (V804M) (h) = molecular target: T1, Ret (V804M) (h) (Homo sapiens, UniProt P07949, V804M); test: Radioisotope labeling kinase assay (Eurofins), Ret (V804M); format: biochemical
T1 construct: purchased Eurofins
Procedure: An activity to a human recombinant protein kinase of a series of compounds was determined by a radioisotope labeling method, which was provided by Eurofins Company. A compound to be detected was mixed with a corresponding protein kinase buffer (20 mM propyl sulfonate (MOPS, […].), 1 mM EDTA, 0.10 β-mercaptoethanol, 0.010 Brij-35, […], and 1 mg/mL BSA), the mixture was added into a reaction system (100 μM reaction substrate […], 8 mM MOPS with a pH value of 7.0, 10 mM MgAcetate, 0.2 mM EDTA, and a certain concentration of γ-^33P-ATP). After adding an MgATP composite solution, the reaction was started at room temperature for 40 minutes, and the reaction was terminated by adding 5 μl of […] solution. Then, 10 μl of reaction solution was dropwise added onto a filter and washed with 75 mM phosphoric acid solution for three times, 5 minutes each time, then washed with methanol once again, and dried and subjected to scintillation counting.

T1 sequence (P07949 29-1114 V804M): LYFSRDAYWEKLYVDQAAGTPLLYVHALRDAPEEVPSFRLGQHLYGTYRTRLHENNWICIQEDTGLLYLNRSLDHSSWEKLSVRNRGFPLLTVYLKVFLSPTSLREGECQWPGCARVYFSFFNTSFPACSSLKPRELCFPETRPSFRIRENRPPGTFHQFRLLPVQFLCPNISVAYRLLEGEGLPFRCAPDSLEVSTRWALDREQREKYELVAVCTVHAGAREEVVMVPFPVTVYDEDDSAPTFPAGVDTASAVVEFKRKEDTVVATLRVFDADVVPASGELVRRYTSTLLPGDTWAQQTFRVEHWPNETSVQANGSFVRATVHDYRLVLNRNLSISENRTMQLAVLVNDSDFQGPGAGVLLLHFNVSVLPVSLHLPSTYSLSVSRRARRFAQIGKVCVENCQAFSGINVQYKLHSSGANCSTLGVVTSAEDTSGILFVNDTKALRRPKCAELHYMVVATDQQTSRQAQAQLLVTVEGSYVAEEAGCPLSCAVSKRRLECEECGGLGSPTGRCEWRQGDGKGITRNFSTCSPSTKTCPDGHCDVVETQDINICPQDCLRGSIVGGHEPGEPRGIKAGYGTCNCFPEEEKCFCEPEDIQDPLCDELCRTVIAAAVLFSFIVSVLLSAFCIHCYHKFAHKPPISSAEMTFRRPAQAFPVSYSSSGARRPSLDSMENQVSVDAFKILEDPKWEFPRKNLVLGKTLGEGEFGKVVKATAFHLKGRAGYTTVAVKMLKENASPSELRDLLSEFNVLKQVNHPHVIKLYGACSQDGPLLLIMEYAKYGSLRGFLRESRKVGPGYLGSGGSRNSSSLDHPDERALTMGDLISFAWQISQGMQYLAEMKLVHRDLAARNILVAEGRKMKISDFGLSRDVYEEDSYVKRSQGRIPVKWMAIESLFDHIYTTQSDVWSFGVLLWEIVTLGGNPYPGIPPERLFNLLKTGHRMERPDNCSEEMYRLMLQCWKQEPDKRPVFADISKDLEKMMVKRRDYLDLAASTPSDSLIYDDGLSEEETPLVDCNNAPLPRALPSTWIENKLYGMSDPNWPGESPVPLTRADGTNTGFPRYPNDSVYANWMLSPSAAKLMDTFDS

Row | IC50 [1] | IC50 [2] | IC50 (MM1S Human myeloma cells) | IC50 [3] | IC50 [4] | IC50 (Ret (V804M) (h)) | Structure (SMILES)
1 | 1470 nM | 2480 nM | 379 nM | 1180 nM | 2040 nM | – | O=C(/C=C/CN1CCOCC1)Nc1cc2cc(c1)Nc1nccc(n1)-c1cccc(c1)COC/C=C/COC2 [XVI-3]
2 | 143 nM | 689 nM | 92 nM | 133 nM | 463 nM | – | O=C(/C=C/CN1CCCC1)Nc1cc2cc(c1)Nc1nccc(n1)-c1cccc(c1)COC/C=C/COC2 [XVI-1]
3 | – | – | – | – | – | 122 nM | C1=C/COCc2cccc(c2)-c2ccnc(n2)Nc2cc(cc(OC/C=C/CN3CCCC3)c2)COC/1 [XVI-12]
